Experimental data published in patent publication US11225499B2, “Chiral platinum complex, method for preparing the same, and method for using the same” (Hefei University of Technology, priority 2019, dated 2022).

How the values were obtained:
[1] = test system: KB (nasopharyngeal carcinoma)
[2] = test system: Human oral cancer cells KB-VIN; test: Anti-cancer activity, KB-VIN cells; type: cell-based; conditions: KB-VIn (anti-drug-resistant nasopharyngeal carcinoma)

In the case of “[1,4-(4R)-diphenyl-2-oxazolinyl benzene] platinum nitrate complex [Platinum complex (I)]”, the “inhibitory activity ED50” value [1] is reported as less than 10.0 µg/mL and the “inhibitory activity ED50” value [2] is reported as less than 10.0 µg/mL.
